Results published in PubChem BioAssay AID1963835 (Molecular Pharmacology Branch, DTP, NCI, 2024).

System: 699152-130-R-J1-PDC complex spheroid viability
Experiment: Anticancer human tumor 699152-130-R-J1-PDC patient-derived pancreatic carcinoma cell line growth inhibition [POLQ]
Conditions: for IC50: curve of first compound; for viability, T/C: stronger effect = lower value
Description: Multicellular complex tumor spheroid response to Polymerase (POL) inhibitors (novobiocin, ART-558, RP6685) in combination with a variety of drugs and investigational agents in selected tumor cell lines
The POL inhibitors (novobiocin, ART-558, and RP6685) were evaluated both individually and in combination with standard of care and investigational anticancer small molecules within a complex spheroid model of solid tumors. . Complex spheroids include a stromal component modeled by human endothelial cells (HUVEC) and fibroblasts modeled by human mesenchymal stem cells (MSCs). The concentration ranges selected for each drug and investigational agent were based upon clinically achievable concentrations if the clinical Cmax of the agent was known.
Compounds. The drugs and investigational agents: novobiocin (NSC847541), ART-558 (NSC835418), RP-6685 (NSC848927), peposertib (NSC802822), ceralasertib (NSC780249), elimusertib (NSC800525), camonsertib (NSC841442), AZD-1390 (NSC803789), olaparib (NSC753686), talazoparib (NSC767125), rucaparib (NSC756644), sotorasib (NSC818433), MRTX-1133 (NSC836407), SN-38 (NSC673596), topotecan (NSC609699), epotoside (NSC141540), doxorubicin (NSC123127), gemcitabine (NSC613327), 5-fluorouracil (NSC19893), paclitaxel (NSC125973), vemurafenib (NSC761431), MSA-2 (NSC828583), SN-011 (NSC837082), adavosertib (NSC754352), prexasertib (NSC758257), carboplatin (NSC241240) and oxaliplatin (NSC266046), were obtained from the National Cancer Institute (NCI) Developmental Therapeutics Program Chemical Repository (21). The FDA-approved anticancer drug set is available from the Developmental Therapeutics Program at https://dtp.cancer.gov/organization/dscb/obtaining/. […] The stock solutions were prepared in dimethyl sulfoxide (DMSO, Sigma-Aldrich, St. Louis, MO, cat. D2650), except for the platinum compounds which were prepared in saline (Quality Biological, Gaithersburg, MD, cat. 114-055-101), at 800-fold the tested concentration and stored at -70 degrees C prior to their use. All drugs and investigational agents were tested over a range starting from a high concentration at or near the clinical Cmax and decreasing in half-log increments. If the clinical Cmax for an agent had not been determined, the highest concentration tested was 10 microM, except for SN-38, which was tested at a high concentration of 1 microM.
Cell Culture. All cells were maintained in an incubator at 37 degrees C and 5% CO2 with 95% humidity. The PDC lines were cultured according to standard operating procedures established by the NCI PDMR (https://pdmr.cancer.gov). Table 3 of the manuscript, lists the cell lines along with the number of the three cell types plated to form the mct-spheroids and media for tumor cell growth. After thawing, all PDC lines, except 997537-175-T-J1-PDC and 415267-285-R-J2-PDC, were cultured in Matrigel-coated flasks prepared with a working solution of 1X Ham's F-12 nutrient mix, without supplementation (Thermo Fisher Scientific, cat. 11765054), 100 U/mL penicillin-streptomycin (Thermo Fisher Scientific, cat. 15140122), and 2.5% Matrigel (Corning Inc., Corning, NY, cat. 354248) for the first three passages. The two PDC lines 997537-175-T-J1-PDC and 415267-285-R-J2-PDC were cultured on uncoated flasks. The 857933-349-R-J2-PDC line was cultured in 6C/Colon 1B media containing advanced DMEM/F-12 (Thermo Fisher Scientific, cat. 12634028), 10 mM HEPES (Thermo Fisher Scientific, cat. 15630080), 1X GlutaMAX supplement (Thermo Fisher Scientific, cat. 35050061), 0.1 mg/mL primocin (InvivoGen, San Diego, CA, cat. ant-pm-2), 10% defined fetal bovine serum, heat inactivated (HyClone Laboratories Inc., Logan, UT, cat. SH30070.03HI), 50% L-WRN conditioned media (ATCC, cat. CRL-3276), 1.25 mM N-Acetyl-L-cysteine (Sigma-Aldrich, cat. A9165), 10 mM nicotinamide (Sigma-Aldrich, cat. N0636), 1X B-27 supplement (Thermo Fisher Scientific, cat. 17504044), 1X N-2 supplement (Thermo Fisher Scientific, cat. […]

[1] = second compound 0.0316 µM, first compound 0.0316 µM
[2] = second compound 0.0316 µM, first compound 0.1 µM
[3] = second compound 0.0316 µM, first compound 0.316 µM
[4] = second compound 0.0316 µM, first compound 1 µM
[5] = second compound 0.0316 µM, first compound 3.16 µM
[6] = second compound 0.0316 µM, first compound 10 µM
[7] = second compound 0.1 µM, first compound 0.0316 µM
[8] = second compound 0.1 µM, first compound 0.1 µM
[9] = second compound 0.1 µM, first compound 0.316 µM
[10] = second compound 0.1 µM, first compound 1 µM
[11] = second compound 0.1 µM, first compound 3.16 µM
[12] = second compound 0.1 µM, first compound 10 µM
[13] = second compound 0.316 µM, first compound 0.0316 µM
[14] = second compound 0.316 µM, first compound 0.1 µM
[15] = second compound 0.316 µM, first compound 0.316 µM
[16] = second compound 0.316 µM, first compound 1 µM
[17] = second compound 0.316 µM, first compound 3.16 µM
[18] = second compound 0.316 µM, first compound 10 µM
[19] = second compound 1 µM, first compound 0.0316 µM
[20] = second compound 1 µM, first compound 0.1 µM
[21] = second compound 1 µM, first compound 0.316 µM
[22] = second compound 1 µM, first compound 1 µM
[23] = second compound 1 µM, first compound 3.16 µM
[24] = second compound 1 µM, first compound 10 µM
[25] = second compound 3.16 µM, first compound 0.0316 µM
[26] = second compound 3.16 µM, first compound 0.1 µM
[27] = second compound 3.16 µM, first compound 0.316 µM
[28] = second compound 3.16 µM, first compound 1 µM
[29] = second compound 3.16 µM, first compound 3.16 µM
[30] = second compound 3.16 µM, first compound 10 µM
[31] = second compound 10 µM, first compound 0.0316 µM
[32] = second compound 10 µM, first compound 0.1 µM
[33] = second compound 10 µM, first compound 0.316 µM
[34] = second compound 10 µM, first compound 1 µM
[35] = second compound 10 µM, first compound 3.16 µM
[36] = second compound 10 µM, first compound 10 µM
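Further: spheroids exposed to agents for 7 days before viability reading.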
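Wherever viability, T/C is given: percent of DMSO vehicle control viability so 100% = vehicle and 0% = no viable signal.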

SMILES: C=CC(=O)N1CCN(c2nc(=O)n(-c3c(C)ccnc3C(C)C)c3nc(-c4c(O)cccc4F)c(F)cc23)C(C)C1 (centres undefined) + Cc1cccc(N(C)C(=O)C2C(O)CCN2c2nc(C)cc(C(F)(F)F)c2C#N)c1
- IC50 (second compound 0.0316 µM): > 10 µM
- IC50 (second compound 0.1 µM): > 10 µM
- IC50 (second compound 0.316 µM): > 10 µM
- IC50 (second compound 1 µM): > 10 µM
- IC50 (second compound 3.16 µM): > 10 µM
- IC50 (second compound 10 µM): > 10 µM
- viability, T/C [1]: 92.9%
- viability, T/C [2]: 99.6%
- viability, T/C [3]: 102%
- viability, T/C [4]: 110%
- viability, T/C [5]: 113%
- viability, T/C [6]: 115%
- viability, T/C [7]: 102%
- viability, T/C [8]: 89.4%
- viability, T/C [9]: 113%
- viability, T/C [10]: 93.8%
- viability, T/C [11]: 119%
- viability, T/C [12]: 105%
- viability, T/C [13]: 99.9%
- viability, T/C [14]: 103%
- viability, T/C [15]: 103%
- viability, T/C [16]: 103%
- viability, T/C [17]: 114%
- viability, T/C [18]: 110%
- viability, T/C [19]: 108%
- viability, T/C [20]: 89.7%
- viability, T/C [21]: 102%
- viability, T/C [22]: 113%
- viability, T/C [23]: 108%
- viability, T/C [24]: 109%
- viability, T/C [25]: 92.2%
- viability, T/C [26]: 91.3%
- viability, T/C [27]: 98.8%
- viability, T/C [28]: 105%
- viability, T/C [29]: 114%
- viability, T/C [30]: 104%
- viability, T/C [31]: 103%
- viability, T/C [32]: 104%
- viability, T/C [33]: 108%
- viability, T/C [34]: 109%
- viability, T/C [35]: 120%
- viability, T/C [36]: 119%

SMILES: CCc1cc2c(N3CCc4c(cc(Cn5ccnc5)cc4-c4cn(C)nc4C(F)(F)F)C3=O)ccnc2c(OC)n1 + Cc1cccc(N(C)C(=O)C2C(O)CCN2c2nc(C)cc(C(F)(F)F)c2C#N)c1
- IC50 (second compound 0.0316 µM): > 10 µM
- IC50 (second compound 0.1 µM): > 10 µM
- IC50 (second compound 0.316 µM): > 10 µM
- IC50 (second compound 1 µM): > 10 µM
- IC50 (second compound 3.16 µM): > 10 µM
- IC50 (second compound 10 µM): > 10 µM
- viability, T/C [1]: 80%
- viability, T/C [2]: 90.4%
- viability, T/C [3]: 105%
- viability, T/C [4]: 114%
- viability, T/C [5]: 103%
- viability, T/C [6]: 95%
- viability, T/C [7]: 75.8%
- viability, T/C [8]: 89.3%
- viability, T/C [9]: 88.1%
- viability, T/C [10]: 94.2%
- viability, T/C [11]: 97.3%
- viability, T/C [12]: 94.9%
- viability, T/C [13]: 86.7%
- viability, T/C [14]: 101%
- viability, T/C [15]: 91.5%
- viability, T/C [16]: 102%
- viability, T/C [17]: 103%
- viability, T/C [18]: 93.6%
- viability, T/C [19]: 101%
- viability, T/C [20]: 93%
- viability, T/C [21]: 98.7%
- viability, T/C [22]: 86.8%
- viability, T/C [23]: 105%
- viability, T/C [24]: 91.7%
- viability, T/C [25]: 99.2%
- viability, T/C [26]: 94.5%
- viability, T/C [27]: 98.4%
- viability, T/C [28]: 95.1%
- viability, T/C [29]: 90.9%
- viability, T/C [30]: 99.8%
- viability, T/C [31]: 85.6%
- viability, T/C [32]: 93.1%
- viability, T/C [33]: 92.5%
- viability, T/C [34]: 94.7%
- viability, T/C [35]: 95.1%
- viability, T/C [36]: 95.5%
